Experimental data: patent US20230250066A1, “HERBICIDAL CINNOLINE DERIVATIVES” (SYNGENTA CROP PROTECTION AG, priority 2020, published 2023)

Legend:
Type in all cases: in vivo
Zea mays (ZEAMX) [1] = test: Pre-emergence herbicidal test; settings: 1000 g/ha, evaluated after 13 days
[2] = test system: Ipomoea hederacea (IPOHE); test: Pre-emergence herbicidal test; settings: 1000 g/ha, evaluated after 13 days
[3] = test system: Abutilon theophrasti (ABUTH); test: Pre-emergence herbicidal test; settings: 1000 g/ha, evaluated after 13 days
[4] = test system: Echinochloa crus-galli (ECHCG); test: Pre-emergence herbicidal test; settings: 1000 g/ha, evaluated after 13 days
[5] = test system: Amaranthus retoflexus (AMARE); test: Pre-emergence herbicidal test; settings: 1000 g/ha, evaluated after 13 days
[6] = test system: Amaranthus retoflexus (AMARE); test: Post-emergence herbicidal test; settings: 1000 g/ha unless otherwise stated, evaluated after 13 days
Outline: (§1)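 Damage score (0–5; 5=81-100%, 1=10-20%, 0=0%) read 13 d after spraying. Spray: acetone/water 50:50 + 0.5% Tween 20, 1000 g/ha unless stated.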

[7] = test system: Abutilon theophrasti (ABUTH); test: Post-emergence herbicidal test; settings: 1000 g/ha unless otherwise stated, evaluated after 13 days
Outline: as §1

[8] = test system: Echinochloa crus-galli (ECHCG); test: Post-emergence herbicidal test; settings: 1000 g/ha unless otherwise stated, evaluated after 13 days
Outline: as §1

[9] = test system: Ipomoea hederacea (IPOHE); test: Post-emergence herbicidal test; settings: 1000 g/ha unless otherwise stated, evaluated after 13 days
Outline: as §1

Setaria faberi (SETFA) [10] = test: Post-emergence herbicidal test; settings: 1000 g/ha unless otherwise stated, evaluated after 13 days
Outline: as §1

Zea mays (ZEAMX) [11] = test: Post-emergence herbicidal test; settings: 1000 g/ha unless otherwise stated, evaluated after 13 days
Outline: as §1

Setaria faberi (SETFA) [12] = test: Pre-emergence herbicidal test; settings: 1000 g/ha, evaluated after 13 days

Row | Structure (SMILES) | percentage damage caused to the plant, five-point scale, ZEAMX (Zea mays (ZEAMX) [1]) | percentage damage caused to the plant, five-point scale, IPOHE [2] | percentage damage caused to the plant, five-point scale, ABUTH [3] | percentage damage caused to the plant, five-point scale, ECHCG [4] | percentage damage caused to the plant, five-point scale, AMARE [5] | percentage damage caused to the plant, AMARE (five-point scale) [6] | percentage damage caused to the plant, ABUTH (five-point scale) [7] | percentage damage caused to the plant, ECHCG (five-point scale) [8] | percentage damage caused to the plant, IPOHE (five-point scale) [9] | percentage damage caused to the plant, SETFA (five-point scale) (Setaria faberi (SETFA) [10]) | percentage damage caused to the plant, ZEAMX (five-point scale) (Zea mays (ZEAMX) [11]) | percentage damage caused to the plant, five-point scale, SETFA (Setaria faberi (SETFA) [12])
1 | CCOC(=O)c1nn(-c2ccc(OC(F)(F)F)cc2)c2ccc(F)c(S(C)(=O)=O)c2c1=O [Compound P51, ethyl 6-fluoro-5-methylsulfonyl-4-oxo-1-[4-(trifluoromethoxy)phenyl]cinnoline-3-carboxylate] | 0 (0=0%) | 0 (0=0%) | 0 (0=0%) | 0 (0=0%) | 0 (0=0%) | 0 (0=0%) | 0 (0=0%) | 0 (0=0%) | 0 (0=0%) | 0 (0=0%) | 0 (0=0%) | 0 (0=0%)
2 | C=C(Cl)COC(=O)c1nn(-c2ccc(OC(F)(F)F)cc2)c2cccc(S(C)(=O)=O)c2c1=O [Compound P66, 2-chloroallyl 5-methylsulfonyl-4-oxo-1-[4-(trifluoromethoxy)phenyl]cinnoline-3-carboxylate] | 1 (1=10-20%) | 1 (1=10-20%) | 0 (0=0%) | 4 (4=61-80%) | 0 (0=0%) | 0 (0=0%) | 1 (1=10-20%) | 4 (4=61-80%) | 0 (0=0%) | 4 (4=61-80%) | 1 (1=10-20%) | 5 (5=81-100%)
3 | CS(=O)(=O)c1cccc2c1c(=O)c(C(=O)OC1CCOC1)nn2-c1ccc(OC(F)(F)F)cc1 (stereo not drawn) [Compound P70, tetrahydrofuran-3-yl 5-methylsulfonyl-4-oxo-1-[4-(trifluoromethoxy)phenyl]cinnoline-3-carboxylate] | 1 (1=10-20%) | 0 (0=0%) | 0 (0=0%) | 3 (3=41-60%) | 0 (0=0%) | 0 (0=0%) | 1 (1=10-20%) | 3 (3=41-60%) | 0 (0=0%) | 4 (4=61-80%) | 0 (0=0%) | 4 (4=61-80%)
4 | CC[S+]([O-])c1cccc2c1c(=O)c(C(=O)O)nn2-c1ccc(OC(F)(F)F)cc1 (stereo not drawn) [Compound P25, 5-ethylsulfinyl-4-oxo-1-[4-(trifluoromethoxy)phenyl]cinnoline-3-carboxylic acid] | 0 (0=0%) | 0 (0=0%) | 0 (0=0%) | 0 (0=0%) | 0 (0=0%) | 0 (0=0%) | 1 (1=10-20%) | 1 (1=10-20%) | 1 (1=10-20%) | 2 (2=21-40%) | 1 (1=10-20%) | 1 (1=10-20%)
5 | O=C(O)c1nn(-c2ccc(OC(F)(F)F)cc2)c2cccc([S+]([O-])CC(F)(F)F)c2c1=O (stereo not drawn) [Compound P37, 4-oxo-5-(2,2,2-trifluoroethylsulfinyl)-1-[4-(trifluoromethoxy)phenyl]cinnoline-3-carboxylic acid] | 0 (0=0%) | 0 (0=0%) | 1 (1=10-20%) | 0 (0=0%) | 0 (0=0%) | 0 (0=0%) | 1 (1=10-20%) | 1 (1=10-20%) | 1 (1=10-20%) | 1 (1=10-20%) | 1 (1=10-20%) | 0 (0=0%)
6 | CCOC(=O)c1nn(-c2ccc(OC(F)(F)F)cc2)c2cc(Br)cc(S(C)(=O)=O)c2c1=O [Compound P11, ethyl 7-bromo-5-methylsulfonyl-4-oxo-1-[4-(trifluoromethoxy)phenyl]cinnoline-3-carboxylate] | 0 (0=0%) | 0 (0=0%) | 0 (0=0%) | 0 (0=0%) | 0 (0=0%) | 0 (0=0%) | 1 (1=10-20%) | 0 (0=0%) | 0 (0=0%) | 1 (1=10-20%) | 1 (1=10-20%) | 0 (0=0%)
7 | CC(C)Cc1cc(S(C)(=O)=O)c2c(=O)c(C(=O)O)nn(-c3ccc(OC(F)(F)F)cc3)c2c1 [Compound P14, 7-isobutyl-5-methylsulfonyl-4-oxo-1-[4-(trifluoromethoxy)phenyl]cinnoline-3-carboxylic acid] | 1 (1=10-20%) | 0 (0=0%) | 1 (1=10-20%) | 1 (1=10-20%) | 1 (1=10-20%) | 1 (1=10-20%) | 1 (1=10-20%) | 0 (0=0%) | 0 (0=0%) | 0 (0=0%) | 0 (0=0%) | 1 (1=10-20%)
